{"source": "patent US7833532B2", "about": "“Immunogenic lipopeptides comprising T-helper and cytotoxic T lymphocyte (CTL) epitopes” (The Council of The Queensland Institute of Medical Research, priority 2002, dated 2010)", "system": "D1 cells", "assay": "Maturation of D1 dendritic cells (surface MHC class II, flow cytometry)", "format": "cell-based, BALB/c mouse", "conditions": "overnight incubation, 0.45 nmoles/mL; […]", "data": [{"sequence": "ALNNRFQIKGVELKSKTYQRTRALV [[Th]-Lys-[CTL]]", "values": [{"measurement": "maturation of D1 cells (percentage expressing high levels of surface MHC class II)", "value": "≤ 26", "unit": "%"}]}]}
